Source: PMC12735718, “Novel Adamantane–Sclareol Hybrids Exploit ROS Vulnerability to Overcome Multidrug-Resistance in Glioblastoma Cells” (Molecules, 2025)

Tests used:
[1] = test system: H2O2 and peroxynitrite anion levels in U87 cells; assay: ROS detection by DHR, U87; assay type: cell-based, human; details: 4 µM, 24 h and 48 h
Experimental: (§1) The levels of ROS were measured in U87 and U87-TxR cells by flow cytometry. The production of superoxide anions was detected using DHE fluorescence dye, while production of H2O2 and peroxynitrite anions was detected using DHR fluorescence dye. Cells were seeded in 6-well plates (150,000 cell/well) and incubated overnight. The cells were then treated with compounds 2 or 5 (4 μM) for 24 h and 48 h. CDDP (10 μM) was used as a positive control. After the treatment period, the cells were stained with DHE or DHR for 30 min in the dark. Following incubation, cells were harvested with trypsinization and washed twice in cold phosphate buffer solution (PBS). Fluorescence was measured on a CytoFlex flow cytometer (Beckman Coulter, Indianapolis, IN, USA). Green fluorescence from the oxidized DHR dye was detected at 525 nm, while the red fluorescence from ethidium derived from DHE was detected at 585 nm. At least 10,000 events were assayed for each sample. The results were analyzed by CytExpert 2.4.0.28 software (Beckman Coulter, Indianapolis, IN, USA).

[2] = test system: mitochondrial membrane potential in U87 and U87-TxR cells; assay: TMRE mitochondrial membrane potential; assay type: cell-based, human; details: 4 µM, 24 h, both cell lines
Experimental: The cell-permeable fluorescent dye TMRE was used to evaluate mitochondrial membrane potential. TMRE selectively accumulates in active mitochondria with intact membrane potential. […] U87 and U87-TxR cells were seeded in 6-well plates at a density of 150,000 cells per well. After 24 h, cells were treated with 2 and 5 (4 µM) and incubated for an additional 24 h. After treatment, cells were trypsinized, resuspended in complete medium containing 500 nM TMRE, and incubated for 30 min at 37 °C in the dark. CCCP (10 µM) was used as a positive control for mitochondrial depolarization and added 30 min before staining. For each sample, at least 10,000 events were collected. TMRE was detected at […]. The results were calculated using CytExpert 2.4.0.28 software (Beckman Coulter, Indianapolis, IN, USA).

[3] = test system: TrxR1 protein in U87-TxR cells; assay: TrxR1 protein expression by flow cytometry, U87-TxR; assay type: cell-based, human; details: 48 h; for protein level of TrxR1: 2 µM and 4 µM
Experimental: Flow cytometry was used to assess TrxR1 and ASK1 protein expression in the U87 and U87-TxR cell lines. Cells were seeded and allowed to attach overnight before exposure to compounds 2 and 5 at final concentrations of 2 μM and 4 μM. After 48 h treatment, cells were collected by trypsinization, rinsed with PBS, and subsequently fixed in 4% PFA for 10 min at room temperature. For permeabilization, ice-cold absolute methanol was added, and the samples were maintained at −20 °C overnight. Following this step, cells were washed in PBS and incubated for 1 h in 0.5% BSA/PBS to block nonspecific binding. Pelleted cells were then resuspended in primary antibodies diluted in 0.5% BSA/PBS [(ASK1, 1:200 (ab45178, Abcam, Cambridge, UK); TrxR1, 1:500 (ab124954, Abcam, Cambridge, UK)] and incubated overnight at +4 °C. Cells were then washed in PBS and incubated for 1 h at room temperature in the dark with fluorescently labeled anti-rabbit IgG secondary antibody (Alexa Fluor 488, ab150097, Abcam, Cambridge, UK), diluted 1:1000 in 0.5% BSA/PBS. Following incubation, samples were washed, resuspended in cold PBS, and analyzed by flow cytometry. A minimum of 10,000 events per sample were acquired, and fluorescence was detected in a green fluorescence channel (525 nm). Data acquisition and processing were performed using CytExpert software (version 2.4.0.28; Beckman Coulter, Indianapolis, IN, USA).

U87-TxR cells = assay: MTT cell viability assay, U87-TxR; assay type: cell-based, human; details: Homo sapiens, U87-TxR; 72 h treatment, MTT, MDR cell line
Experimental: (§2) Cell viability was measured using the colorimetric MTT assay based on the reduction of MTT into formazan dye. Cell lines were seeded into 96-well cell culture plates (4000 cells/well) in appropriate medium. After overnight incubation, cells were treated with increasing concentrations of 1, 2, 3, 4, 5, and 6 (0.5, 1, 2, 4, and 8 µM). After 72 h treatment, MTT solution (4 mg/mL) was added and plates were incubated at 37 °C with 5% CO2 for 3 h. After incubation, formazan crystals were dissolved using 100 µL DMSO, resulting in a purple color. The absorbance was measured at 570 nm with a reference wavelength of 690 nm using an automated microplate reader (MultiskanSky, Thermo Scientific, USA). The IC50 values were determined by non-linear regression analysis in GraphPad Prism 8.0.2. software (GraphPad Software, Boston, MA, USA).

P-gp = test system: P-gp; parameters: method as in PMID 40939538; details: non-small cell lung carcinoma sensitive and MDR P-gp-overexpressing cells ref 23; cited from earlier work
[4] = test system: H2O2 and peroxynitrite anion levels in U87-TxR cells; assay: ROS detection by DHR, U87-TxR; assay type: cell-based, human; details: 4 µM, 24 h and 48 h
Experimental: as §1

SVG p12 cells = assay: MTT cell viability assay, SVG p12; assay type: cell-based, human; details: for IC50: Homo sapiens, SVGp12, 72 h treatment, MTT, normal glial cell line; for Selectivity Index: IC50 SVG p12 vs average IC50 in A-172, U87 and U87-TxR
Experimental: as §2

| SMILES | H2O2 and peroxynitrite anion levels (DHR) [1] | TMRE fluorescence (mitochondrial membrane potential) [2] | protein level of TrxR1 [3] | IC50 (U87-TxR cells) | P-gp interaction (P-gp) | DHR fluorescence (H2O2 and peroxynitrite anion levels) [4] | IC50 (SVG p12 cells) | Selectivity Index (SVG p12 cells) | increase in TrxR1 level ([3]; 4 µM, relative to untreated control) |
| --- | --- | --- | --- | --- | --- | --- | --- | --- | --- |
| CC1(C)CCC[C@]2(C)[C@@H](CC[C@@](C)(O)/C=C/c3ccc(CNCCCCCCCCNCC45CC6CC(CC(C6)C4)C5)s3)[C@](C)(O)CC[C@@H]12 [Compound 2] | slight or no increase | decreased | significantly increased | 1.96 ± 0.049 µM | P-gp inhibitor | increase in DHR fluorescence | 6.2 ± 0.145 µM | 2.813 ^S |  |
| CC1(C)CCC[C@]2(C)[C@@H](CC[C@@](C)(O)/C=C/c3ccc(CNCCCCCCCCNCC45CC6CC(CC(C6)C4)C5)o3)[C@](C)(O)CC[C@@H]12 [Compound 5] | slight or no increase | decreased | significantly increased | 3.78 ± 0.118 µM | P-gp substrate | increase in DHR fluorescence | 6.69 ± 0.128 µM | 1.470 | 69% |
